Measurements: patent US5095037A, “Combined anti-inflammatory agent” (Nissho Corporation, priority 1989, dated 1992)

Tests used:
[1] = test system: carrageenan-induced edema; assay: Test Example 4: inhibitory effect on carrageenan-induced edema, various acid anti-inflammatory agents (Table 5); format: in vivo, Wister male rats; details: dose 4 mg/kg, single agent
Description: (§1) The measurement of the volume was carried out according to the method of Fujimura et al. (see Iyakuhin Kaihatsu Kisokoza, Vol. 6, "Yakubutsu no Hyoka (1)" editted by Tsuda and Nogami, p 239-282, Kabushiki Kaisha Chizin-sha, 1971).
(§2) The rate of inhibition (%) of the edema of the foot pad of each rat was calculated according to the following formula (III). [formula] MCEV: Average swollen rate of the foot pad 4 hours after the administration of carrageenan in the control group
(§3) MTEV: Average swollen rate of the foot pad 4 hours after the administration of carrageenan in the drug-given group [formula] CEV: Volume of foot pad of each rat before the administration of carrageenan
(§4) TEV: Volume of foot pad of each rat 4 hours after the administration of carrageenan
(§5) With respect to each agent, the evaluation of the inhibitory effect on edema was carried out according to the following criteria: Synergistic effect was observed:
(§6) Very great HA % + DG % ≤ ED %
(§7) Great TD % ≤ ED % < HA % + DG %
(§8) Small MD % < ED % < TD %
(§9) No synergistic effect was observed:
(§10) HA % : Inhibitory rate by the administration of sodium hyaluronate alone
(§11) DG % : Inhibitory rate by the administration of the anti-inflammatory agent alone
(§12) ED % : Inhibitory rate by the administration of the combined agent
(§13) MD % : {The greater one between HA % and DG %} × 1.2
(§14) TD % : HA % + DG % (1--HA %/100)
The inhibitory effect on carrageenan-induced edema was investigated with respect to combined agents of sodium hyaluronate (molecular weight: 8 × 10^5) and various acid anti-inflammatory agents.
(§15) Wister male rats weighing 240 to 255 (6 weeks old) were preliminarily bred for not less than 1 week. Eight rats were used in one group. A 1% solution of each test agent shown in Table 5 was administered subcutaneously into the right foot pad of each rat. Six hours after the administration, a 1% solution of carrageenen was administered subcutaneously as an irritating agent into the right foot pad of each rat in a dose of 0.1 ml/animal. The volume of the right foot pad was measured before and 4 hours after the administration of carrageenen. Then, the inhibitory effect on edema was evaluated in the same way as in Test Example 1.

[2] = test system: carrageenan-induced edema; assay: Test Example 1: inhibitory effect on carrageenan-induced edema, foot pad, agent 6 h before carrageenan (Table 2); format: in vivo, Wister male rats
Description: The inhibitory effect on carrageenan-induced edema was investigated as to combined agents of sodium hyaluronate (molecular weight: 8 ×10^5) and various anti-inflammatory agents.
Wister male rats weighing 240 to 260 g (6 weeks old) were preliminarily bred for not less than 1 week. Eight rats were used in one group. Each test agent shown in Table 2 was dissolved or suspended in an isotonic phosphate buffer solution (pH 7.0) to give a 1% solution or suspension (hereinafter referred to as "1% solution"). The solution was administered subcutaneously into the right foot pad of each rat. Six hours after the administration, a 1% solution of carrageenan was administered subcutaneously as an irritating agent into the right foot pad of the rat in a dose of 0.1 ml/animal. The volume of the right foot pad was measured before and 4 hours after the administration of carrageenan. The rate of edema inhibition (hereinafter referred to as "inhibitory rate") by each test agent was calculated from the obtained measurements and thus the inhibitory effect on edema was evaluated.
as §2, §3, §4, §5, §6, §7, §8, §9, §10, §11, §12, §13, §14

[3] = test system: movable range of joint (right knee); assay: Test Example 7: inhibition of the damage to the movable range of joint, fixed right knee (Table 8); format: in vivo, Rabbits (New Zealand White); details: articular cavity; for curative effect (in words): Table 8; for Inhibitory rate (damage to the movable range of joint): dose 3.0 mg/kg, once per three days, one month, single agent
Description: Rabbits (New Zealand White) weighing about 2 kg were preliminarily bred for not less than one week and healthy ones were selected (3 rabbits per group). The joint of right knee of each rabbit was fixed by applying a splint thereto and further completely fixed not so as to move by putting it in plaster. Then the rabbits were bred normally for one month.
During the normal breading, a 1% solution of each test agent shown in Table 8 was administered using an injection needle of gauge No. 27 into the articular cavity of each rabbit except those of the control group in a dose of 0.3 ml/kg body weight once per three days.
One day after the last administration, the splint and the plaster were removed and the movable range of the joint was measured with a protractor under anesthesia with Nembutal (trademark). The rate of inhibition of the damage to the movable range of joint with respect to each test agent was calculated from the obtained measurements and the curative effect was evaluated.
The rate of inhibition of the damage to the movable range of joint was calculated according to the following formula (IV), and the evaluation of synergistic effect was conducted under the same condition as in Test Example 1. [formula] MCJV: Average movable range of joint with respect to the rabbits of the […] group
MTJV: Average movable range of joint with respect to the rabbits of the […] group

[4] = test system: carrageenan-induced edema; assay: Test Example 6: prolonged inhibitory effect on carrageenan-induced edema, agent 16 h before carrageenan (Table 7); format: in vivo, Wister male rats
Description: as §1, §2, §3, §4, §5, §6, §7, §8, §9, §10, §11, §12, §13, §14
as §15, with “240 to 260 g (6 weeks” for “240 to 255 (6 weeks”, “in Table 7 was administered” for “in Table 5 was administered”, “each rat. Sixteen hours after” for “each rat. Six hours after”, “solution of carrageenan was administered” for “solution of carrageenen was administered”

[5] = test system: carrageenan-induced edema; assay: Test Example 3: inhibitory effect on carrageenan-induced edema, varied ratio of diclofenac sodium to sodium hyaluronate (Table 4); format: in vivo, Wister male rats; details: dose 4 mg/kg; HA molecular weight 8 × 10^5
Description: as §1, §2, §3, §4
The inhibitory effect on carrageenan-induced edema was investigated with respect to combined agents of sodium hyaluronate (molecular weight: 8 × 10^5) and diclofenac sodium wherein the ratio of diclofenac sodium to sodium hyaluronate varied.
Wister male rats weighing 235 to 260 g (6 weeks old) were preliminarily bred for not less than 1 week. Eight rats were used in one group. […] The volume of the right foot pad was measured before and 4 hours after the administration of carrageenen. Then, the inhibitory effect on edema was evaluated in the same way as in Test Example 1.

ICR mice = assay: Test Example 5: toxicity, number of dead mice 72 hours after subcutaneous administration (Table 6); format: in vivo; details: dose 40 mg/kg s.c., 5 mice per group
Description: After preliminary breeding of mail ICR mice 5 weeks old weighing 23 to 28 g (5 mice per one group) for one week, a 1% solution of each test agent shown in Table 6 wa subcutaneously administered to the mice. The number of dead mice was counted 72 hours after the administration.
The doses of the test agent used in this test were about ten times those used in Test Example 1.
The molecular weight of sodium hyaluronate is 8 × 10^5. The
doses in Table 6 mean the amounts (mg) administered per kg body weight.
The dose values, to which the mark "+" is attached, as to the combined
agents means the amounts of antiinflammatory agent added to 40 mg/kg of
sodium hyaluronate (HA).

[6] = test system: carrageenan-induced edema; assay: Test Example 2: inhibitory effect on carrageenan-induced edema, sodium hyaluronates of different molecular weights (Table 3); format: in vivo, Wister male rats; details: dose 4.0 mg/kg
Description: as §1, §2, §3, §4
The inhibitory effect on carrageenan-induced edema was investigated as to combined agents of various grades of sodium hyaluronates having different molecular weights with diclofenac sodium.
Wister male rats weighing 230 to 265 g (6 weeks old) were preliminarily bred for not less than 1 week. Eight rats were used in one group. A 1% solution of each test agent shown in Table 3 was administered subcutaneously into the right foot pad of each rat. Six hours after the administration, a 1% solution of carrageenan was administered subcutaneously as an irritating agent into the right foot pad of the rat in a dose of 0.1 ml/animal. The volume of the right foot pad was measured before and 4 hours after the administration of carrageenan. Then the inhibitory effect on edema was evaluated in the same way as in Test Example 1.

[7] = dose 4.0 mg/kg, s.c. foot pad, single agent, 4 h after carrageenan

## C=CCOc1ccc(CC(=O)O)cc1Cl [Alclofenac]
[1]
  Inhibitory rate (edema): 22.9%

## CC(=O)Oc1ccccc1C(=O)O [Aspirin]
[1]
  Inhibitory rate (edema): 14.6%

## O=C(O)Cc1ccccc1Nc1c(Cl)cccc1Cl [Diclofenac sodium]
[2]; [7]
  Inhibitory rate (edema): 16.9%
[3]
  curative effect (in words): some curative effect
  Inhibitory rate (damage to the movable range of joint): 17.3%
[4]; dose 3.0 mg/kg
  Inhibitory rate (edema): 9.7%

## CC(C)Cc1ccc(C(C)C(=O)O)cc1 (stereo not drawn) [Ibuprofen]
[2]; [7]
  Inhibitory rate (edema): 18.2%

## COc1ccc2c(c1)c(CC(=O)O)c(C)n2C(=O)c1ccc(Cl)cc1 [Indometacin]
[2]; dose 1.2 mg/kg, s.c. foot pad, single agent, 4 h after carrageenan
  Inhibitory rate (edema): 12.9%
[4]; dose 3.0 mg/kg
  Inhibitory rate (edema): 20%

## Cc1cccc(Nc2ccccc2C(=O)O)c1C [Mefenamic acid]
[1]
  Inhibitory rate (edema): 34.2%

## CCCCC1C(=O)N(c2ccccc2)N(c2ccccc2)C1=O [Phenylbutazon, Phenylbutazone]
[2]; [7]
  Inhibitory rate (edema): 46.1%

## CN1C(C(=O)Nc2ccccn2)=C(O)c2ccccc2S1(=O)=O [Piroxicam]
[2]; [7]
  Inhibitory rate (edema): 34.6%

## CC(C(=O)O)c1ccc2c(c1)Cc1cccnc1O2 (stereo not drawn) [Pranoprofen]
[1]
  Inhibitory rate (edema): 39.0%

## C[C@]12C=CC(=O)C=C1CC[C@@H]1[C@@H]2[C@@H](O)C[C@@]2(C)[C@H]1CC[C@]2(O)C(=O)CO [Prednisolone]
[2]; dose 0.5 mg/kg, s.c. foot pad, single agent, 4 h after carrageenan
  Inhibitory rate (edema): 21.7%

## O=C([O-])c1ccccc1O.[Na+] [Sodium salicylate]
[2]; rat, in vivo, sc, 50 mg/kg
  Inhibitory rate (edema): 46.6%

## Cc1ccc(C(=O)c2ccc(CC(=O)O)n2C)cc1 [Tolmetin]
[1]
  Inhibitory rate (edema): 25.1%

## Sodium hyaluronate [Sodium hyaluronate (HA)]
[5]
  Inhibitory rate (edema): 25.9%
[2]; [7]
  Inhibitory rate (edema): 23.5%
[3]
  curative effect (in words): some curative effect
  Inhibitory rate (damage to the movable range of joint): 24.5%
[1]
  Inhibitory rate (edema): 23.9%
ICR mice
  Number of dead mice: 0
[4]; dose 4.0 mg/kg
  Inhibitory rate (edema): 30.0%
[6]; molecular weight of HA 28 × 10^4
  Inhibitory rate (edema): -36.4%
[6]; molecular weight of HA 58 × 10^4
  Inhibitory rate (edema): 17.9%
[6]; molecular weight of HA 80 × 10^4
  Inhibitory rate (edema): 29.9%
[6]; molecular weight of HA 210 × 10^4
  Inhibitory rate (edema): 43.2%
